The record followed here is ChEMBL document CHEMBL1201862, “PubChem BioAssay data set” (2004).

As a reminder, the EC50 is the concentration that produces a half-maximal response. As a reminder, the AC50 is the concentration giving half of the maximal activity seen. For orientation: IC50 means the concentration that gives 50% inhibition.

In assay [1] the target is Lysosomal acid glucosylceramidase (Homo sapiens, UniProt P04062). In words: Dose response cell-based high throughput screening assay to identify enhancers of beta-glucosidase activity. [Related pubchem assays: 784 ]. Type of assay: functional.
The target in assay [2] is T1, Eukaryotic translation initiation factor 2-alpha kinase 3 (Homo sapiens, UniProt Q9NZJ5). In words: Counterscreen assay for PERK inhibitors: Dose response cell-based high throughput screening assay to measure inhibition of PERK at 6 hours. [Related pubchem assays: 1522, 1416 ]. Type of assay: functional. (In general: Counterscreens check selectivity or assay interference.)

Assay [3] concerns the target T1, Eukaryotic translation initiation factor 2-alpha kinase 3. In words: Dose response cell-based high-throughput screening assay to measure PERK inhibition. [Related pubchem assays: 1416 ]. It counts as functional.
The target of assay [4] is Cytochrome P450 2C9 (Homo sapiens, UniProt P11712). Particulars: Potency.
Assay [5] addresses Metabotropic glutamate receptor 4 (Rattus norvegicus, UniProt P31423). In words: Modulation of the Metabotropic Glutamate Receptor mGluR4: Rat PAM Potency. [Related pubchem assays (depositor defined):AID2437, AID2807]. It counts as functional.
The target in assay [6] is Voltage-gated N-type calcium channel alpha-1B subunit/Amyloid beta A4 precursor protein-binding family A member 1 (Homo sapiens, UniProt Q00975+Q02410). Kind of assay: disruptors of Mint-PDZ/N-type channel peptide interaction – biochemical, HTRF, set 2, SAR follow-up (AID 434980). Type of assay: functional. (In general: TR-FRET usually uses a lanthanide donor and a delayed reading to cut background.)

The nature of assay [7]: HEK-293T cell viability reduction – luminescence, B-cell screen hits, cytotoxicity control for BCR NF-kB inhibitor project, dose response (AID 489021).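 Also: HEK-293T cells carrying an NF-kB luciferase reporter; cells exposed to compound for about 14 hours before viability readout.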 It counts as functional, cell-based.
Assay [8] can be described thus: HIV-1 AD8 envelope cell-cell fusion blockers – cherry-pick, dose response (AID 652062).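 Also: luciferase signal from cell-cell fusion driven by HIV-1 clade B AD8 Env; potency is for inhibitors of fusion seen as a drop in luminescence.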 Type of assay: functional, cell-based.
Assay [9] addresses Heat shock protein HSP 90-alpha (Homo sapiens, UniProt P07900). In words: Luminescence-based dose response biochemical high throughput screening assay for inhibitors of the Heat Shock Protein 90 (HSP90). [Related pubchem assays: 1831 (Summary AID.), 1846 (Confirmation screen.), 1789 (Primary screen.)].
Assay [10] can be described thus: blockers of HIV-1 ZM109 envelope-driven cell-cell fusion – HeLa effector, CEM target cells, luciferase, cherry-pick, dose response (AID 652058).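 Also: luciferase signal from HIV-1 Env mediated cell-cell fusion of effector and target cells.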 It counts as functional, cell-based.
The target in assay [11] is Paired box protein Pax-8 (Homo sapiens, UniProt Q06710). Kind of assay: PAX8 transcriptional activity inhibition in RMG-I – RMG-I cells, luciferase, cherry-pick, dose response (AID 687027).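 Also: luciferase reporter driven by Pax8 target thyroperoxidase promoter measured by SteadyGlo luminescence.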 Type of assay: functional, cell-based.
The subject of assay [12] is HEK293. In words: PMA/Ionomycin-induced IL-8 production in HEK293- NF-kB-Luc stable cells. [Related pubchem assays: 1299, 1295, 1375, 1287, 1281, 1293, 1291, 1289, 1280, 465, 1364, 1282, 1372, 1365, 1367, 1366, 1266, 1269, 1373, 1292, 1290, 1302, 1371, 1283, 1271, 1294, 1374, 1368, 1369 ]. Type of assay: functional, cell-based. The settings on record: Homo sapiens.
Assay [13] is described as follows: off-target signal loss in HeLa-CEM21 co-culture – HeLa F-luc CTL cells, cherry-picked, counter-screen for HIV-1 Env fusion inhibitor project, dose response (AID 652040).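 Also: potency for signal decrease marking cytotoxic or nonspecific inhibition.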 Type of assay: functional, cell-based.
Assay [14] is described as follows: blockers of HIV-1 envelope-mediated cell-cell fusion – cherry-pick, dose response (AID 652057). It counts as functional, cell-based.
The test system of assay [15] is HEK293. Kind of assay: TNF Induced NF-kB Luciferase in 293-NF-kB-Luc Stable Cells. [Related pubchem assays: 1266, 1299, 1269, 1373, 1292, 1290, 1302, 1371, 1283, 1270, 1295, 1271, 1375, 1294, 1374, 1281, 1293, 1291, 1289, 1280, 465, 1368, 1364, 1282, 1372, 1365, 1369, 1370, 1367, 1366 ]. It counts as functional, cell-based. Particulars: Homo sapiens.
Assay [16] concerns HEK293. In words: Cytotoxicity assay in HEK293 cells. [Related pubchem assays (depositor defined):AID1266, AID1269, AID1270, AID1271, AID1280, AID1281, AID1282, AID1283, AID1287, AID1289, AID1290, AID1291, AID1292, AID1293, AID1294, AID1295, AID1299, AID1302, AID1364, AID1365, AID1366, AID1367, AID1369, AID1370, AID1371, AID1372, AID1373, AID1374, AID1375, AID1384 …. Type of assay: functional, cell-based. The settings on record: Homo sapiens.

Assay [17] deals with Luciferin 4-monooxygenase (Photinus pyralis, UniProt P08659). In words: In vitro luciferase assay using purified luciferase. [Related pubchem assays: 1299, 1270, 1295, 1375, 1287, 1281, 1293, 1291, 1289, 1280, 465, 1364, 1282, 1372, 1365, 1370, 1367, 1366, 1266, 1373, 1292, 1290, 1302, 1371, 1283, 1271, 1294, 1374, 1368, 1369 ].
For assay [18], the system named is HEK293. In words: PMA/Ionomycin induced NF-kB luciferase assay in 293- NF-kB-Luc stable cells. [Related pubchem assays: 1299, 1270, 1295, 1375, 1287, 1281, 1293, 1291, 1289, 1280, 465, 1364, 1282, 1372, 1365, 1370, 1367, 1366, 1269, 1373, 1292, 1290, 1302, 1371, 1283, 1271, 1294, 1374, 1368, 1369 ]. It counts as functional, cell-based. Particulars: Homo sapiens.

Assay [19] deals with HEK293. Kind of assay: optical interference in Abeta FP readout, dose response, artefact control for IDE activator project, biochemical, fluorescence polarization (AID 588442). Type of assay: functional, cell-based. The settings on record: Homo sapiens.
For assay [20], the target named is Photoreceptor-specific nuclear receptor (Homo sapiens, UniProt Q9Y5X4). Type of assay: functional.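 Also: potency for compounds that break the NR2E3 corepressor complex and count as activators.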
Assay [21] addresses T2, Insulin-degrading enzyme (Homo sapiens, UniProt P14735).
T2 sequence (P14735 whole entry): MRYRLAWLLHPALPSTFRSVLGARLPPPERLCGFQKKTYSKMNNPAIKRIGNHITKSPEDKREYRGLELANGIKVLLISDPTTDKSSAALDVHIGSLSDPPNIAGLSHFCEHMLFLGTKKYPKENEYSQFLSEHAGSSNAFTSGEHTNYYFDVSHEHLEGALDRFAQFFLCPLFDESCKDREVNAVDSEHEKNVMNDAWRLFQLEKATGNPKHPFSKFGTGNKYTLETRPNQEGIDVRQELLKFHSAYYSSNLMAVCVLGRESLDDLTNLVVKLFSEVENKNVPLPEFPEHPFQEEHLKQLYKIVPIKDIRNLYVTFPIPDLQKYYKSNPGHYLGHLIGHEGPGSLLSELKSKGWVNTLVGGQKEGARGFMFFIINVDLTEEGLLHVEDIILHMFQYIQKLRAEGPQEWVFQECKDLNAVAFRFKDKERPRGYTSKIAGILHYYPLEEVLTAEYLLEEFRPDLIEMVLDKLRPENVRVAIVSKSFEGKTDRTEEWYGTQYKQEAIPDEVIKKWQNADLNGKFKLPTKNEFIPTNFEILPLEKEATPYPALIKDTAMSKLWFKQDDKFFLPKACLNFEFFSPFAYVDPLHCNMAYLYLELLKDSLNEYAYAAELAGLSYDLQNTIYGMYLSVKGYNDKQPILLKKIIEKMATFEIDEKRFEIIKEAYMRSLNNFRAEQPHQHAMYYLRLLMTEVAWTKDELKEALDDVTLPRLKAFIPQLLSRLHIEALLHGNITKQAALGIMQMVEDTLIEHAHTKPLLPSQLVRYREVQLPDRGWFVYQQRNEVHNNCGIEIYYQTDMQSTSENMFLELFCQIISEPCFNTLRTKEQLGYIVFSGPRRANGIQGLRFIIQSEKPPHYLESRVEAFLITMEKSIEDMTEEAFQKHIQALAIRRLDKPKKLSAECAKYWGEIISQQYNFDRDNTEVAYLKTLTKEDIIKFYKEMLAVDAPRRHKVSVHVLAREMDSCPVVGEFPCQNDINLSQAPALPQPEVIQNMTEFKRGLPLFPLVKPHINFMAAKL
In words: cellular IDE activation of Abeta substrate cleavage – fluorescence polarization, HEK cells, dose response (AID 588439). Type of assay: functional, cell-based. A general note: Polarisation of emitted light reports the rotation of a fluorescent probe.

Assay [22] relates to HEK293. In words: membrane integrity loss in HEK cells – cell-based, fluorescence, cytotoxicity control for IDE activator project, dose response (AID 588440).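 Also: cytotoxicity by LDH release measuring loss of membrane integrity.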 Type of assay: functional. Particulars: Homo sapiens.
Assay [23] deals with Nonstructural protein 1 (Influenza A virus, UniProt Q194T2). It counts as functional, Influenza A virus (A/California/07/2009(H1N1)).
The target in assay [24] is Ras and Rab interactor 1/Tyrosine-protein kinase ABL1 (Homo sapiens, UniProt P00519+Q13671). Type of assay: functional.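 Also: biochemical TR-FRET dose-response test measuring inhibition of binding between Rin1 and Abl proteins.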
The target in assay [25] is Peroxisome proliferator-activated receptor gamma/Nuclear receptor corepressor 2 (Homo sapiens, UniProt P37231+Q9Y618). It counts as functional.
The target of assay [26] is T2, Insulin-degrading enzyme. Kind of assay: recombinant IDE activation, cell-free – biochemical, fluorescence polarization, counter-screen for IDE activator project, dose response (AID 588681).

SMILES strings stand for the structures. Calls of active or inactive are those of the source.

T1 sequence (Q9NZJ5 whole entry): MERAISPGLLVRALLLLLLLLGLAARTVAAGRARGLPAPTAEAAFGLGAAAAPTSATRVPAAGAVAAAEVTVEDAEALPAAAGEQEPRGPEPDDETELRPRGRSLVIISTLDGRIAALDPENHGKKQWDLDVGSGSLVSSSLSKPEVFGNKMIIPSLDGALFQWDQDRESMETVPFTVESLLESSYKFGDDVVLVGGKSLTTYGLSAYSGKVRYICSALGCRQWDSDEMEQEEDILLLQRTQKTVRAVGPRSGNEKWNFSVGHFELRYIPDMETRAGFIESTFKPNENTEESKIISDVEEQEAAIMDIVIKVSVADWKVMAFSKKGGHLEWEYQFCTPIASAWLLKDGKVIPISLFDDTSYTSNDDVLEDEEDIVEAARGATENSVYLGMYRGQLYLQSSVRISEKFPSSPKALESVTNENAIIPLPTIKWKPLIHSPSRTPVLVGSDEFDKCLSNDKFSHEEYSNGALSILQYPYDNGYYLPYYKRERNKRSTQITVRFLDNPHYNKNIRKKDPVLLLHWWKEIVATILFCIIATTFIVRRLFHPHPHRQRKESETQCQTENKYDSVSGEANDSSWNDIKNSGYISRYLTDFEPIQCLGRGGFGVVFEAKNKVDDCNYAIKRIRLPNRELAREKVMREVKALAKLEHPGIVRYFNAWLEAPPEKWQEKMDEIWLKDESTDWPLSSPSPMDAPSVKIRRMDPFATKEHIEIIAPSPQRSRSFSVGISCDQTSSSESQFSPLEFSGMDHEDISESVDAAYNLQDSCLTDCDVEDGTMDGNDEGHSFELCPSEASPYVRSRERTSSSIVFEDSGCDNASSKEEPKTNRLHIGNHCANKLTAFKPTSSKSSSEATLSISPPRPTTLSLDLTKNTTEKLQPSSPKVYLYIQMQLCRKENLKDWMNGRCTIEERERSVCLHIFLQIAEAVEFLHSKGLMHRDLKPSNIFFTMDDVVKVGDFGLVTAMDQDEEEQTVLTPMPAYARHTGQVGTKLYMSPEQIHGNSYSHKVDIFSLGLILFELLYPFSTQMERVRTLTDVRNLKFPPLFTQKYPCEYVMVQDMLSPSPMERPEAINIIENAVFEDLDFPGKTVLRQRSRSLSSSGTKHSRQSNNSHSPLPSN
Chain of Lysosomal acid glucosylceramidase (P04062 whole entry): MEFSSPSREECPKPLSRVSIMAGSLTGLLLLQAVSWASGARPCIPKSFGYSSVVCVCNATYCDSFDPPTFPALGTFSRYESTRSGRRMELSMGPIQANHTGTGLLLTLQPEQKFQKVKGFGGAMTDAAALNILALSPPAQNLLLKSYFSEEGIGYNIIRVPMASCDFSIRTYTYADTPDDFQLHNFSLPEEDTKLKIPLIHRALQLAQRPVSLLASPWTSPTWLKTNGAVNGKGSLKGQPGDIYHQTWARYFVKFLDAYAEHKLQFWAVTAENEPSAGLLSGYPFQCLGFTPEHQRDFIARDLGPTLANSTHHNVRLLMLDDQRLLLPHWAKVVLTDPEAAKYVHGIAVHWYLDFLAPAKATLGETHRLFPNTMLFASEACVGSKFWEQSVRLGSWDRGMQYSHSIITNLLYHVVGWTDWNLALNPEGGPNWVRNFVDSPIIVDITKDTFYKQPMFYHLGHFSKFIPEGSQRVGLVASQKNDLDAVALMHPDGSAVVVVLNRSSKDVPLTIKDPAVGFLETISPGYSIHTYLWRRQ
Chain of Photoreceptor-specific nuclear receptor (Q9Y5X4 whole entry): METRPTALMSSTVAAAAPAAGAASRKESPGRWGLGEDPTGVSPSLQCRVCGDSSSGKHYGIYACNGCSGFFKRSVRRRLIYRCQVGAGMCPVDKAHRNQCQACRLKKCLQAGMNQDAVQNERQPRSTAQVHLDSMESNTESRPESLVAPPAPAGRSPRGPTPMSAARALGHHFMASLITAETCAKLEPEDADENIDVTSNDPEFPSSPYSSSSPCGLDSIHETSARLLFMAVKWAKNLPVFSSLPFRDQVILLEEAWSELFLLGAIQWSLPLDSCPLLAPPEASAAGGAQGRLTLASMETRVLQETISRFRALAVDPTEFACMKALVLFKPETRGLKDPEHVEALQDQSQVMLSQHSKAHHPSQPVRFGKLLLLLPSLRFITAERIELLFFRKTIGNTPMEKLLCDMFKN
Chain of Paired box protein Pax-8 (Q06710 whole entry): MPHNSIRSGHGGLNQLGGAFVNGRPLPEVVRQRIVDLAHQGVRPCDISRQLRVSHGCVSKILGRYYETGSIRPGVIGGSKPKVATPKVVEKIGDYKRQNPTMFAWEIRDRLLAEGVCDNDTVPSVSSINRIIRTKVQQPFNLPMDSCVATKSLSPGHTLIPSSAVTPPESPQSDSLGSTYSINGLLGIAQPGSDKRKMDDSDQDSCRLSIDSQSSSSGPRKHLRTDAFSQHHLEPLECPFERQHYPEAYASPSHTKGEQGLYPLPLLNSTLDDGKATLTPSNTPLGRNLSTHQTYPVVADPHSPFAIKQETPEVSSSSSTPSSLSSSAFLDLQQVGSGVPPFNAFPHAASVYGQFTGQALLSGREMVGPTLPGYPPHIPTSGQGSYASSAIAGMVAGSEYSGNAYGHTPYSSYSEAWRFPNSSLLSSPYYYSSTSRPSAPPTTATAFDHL
Chain of Luciferin 4-monooxygenase (P08659 whole entry): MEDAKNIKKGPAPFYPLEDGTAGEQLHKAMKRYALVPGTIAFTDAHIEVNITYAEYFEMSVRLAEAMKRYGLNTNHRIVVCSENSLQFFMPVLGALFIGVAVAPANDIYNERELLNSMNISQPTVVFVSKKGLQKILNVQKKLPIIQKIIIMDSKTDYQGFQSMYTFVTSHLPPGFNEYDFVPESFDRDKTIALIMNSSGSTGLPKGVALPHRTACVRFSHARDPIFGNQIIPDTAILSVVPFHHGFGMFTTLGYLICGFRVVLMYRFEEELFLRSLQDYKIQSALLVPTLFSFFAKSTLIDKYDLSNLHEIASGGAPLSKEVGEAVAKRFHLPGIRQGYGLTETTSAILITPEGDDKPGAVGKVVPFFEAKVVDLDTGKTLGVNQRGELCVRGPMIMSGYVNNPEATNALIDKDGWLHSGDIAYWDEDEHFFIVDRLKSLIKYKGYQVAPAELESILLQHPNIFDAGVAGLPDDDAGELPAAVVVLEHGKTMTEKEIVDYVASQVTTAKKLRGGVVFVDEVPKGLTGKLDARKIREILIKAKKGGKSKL
Chain of Nonstructural protein 1 (Q194T2 whole entry): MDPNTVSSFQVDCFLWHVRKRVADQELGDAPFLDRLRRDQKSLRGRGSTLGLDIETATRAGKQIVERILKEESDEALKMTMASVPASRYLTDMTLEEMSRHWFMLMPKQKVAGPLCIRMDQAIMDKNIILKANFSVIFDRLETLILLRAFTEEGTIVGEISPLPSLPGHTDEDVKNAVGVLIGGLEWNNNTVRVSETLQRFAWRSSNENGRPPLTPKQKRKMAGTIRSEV
Chain of Metabotropic glutamate receptor 4 (P31423 whole entry): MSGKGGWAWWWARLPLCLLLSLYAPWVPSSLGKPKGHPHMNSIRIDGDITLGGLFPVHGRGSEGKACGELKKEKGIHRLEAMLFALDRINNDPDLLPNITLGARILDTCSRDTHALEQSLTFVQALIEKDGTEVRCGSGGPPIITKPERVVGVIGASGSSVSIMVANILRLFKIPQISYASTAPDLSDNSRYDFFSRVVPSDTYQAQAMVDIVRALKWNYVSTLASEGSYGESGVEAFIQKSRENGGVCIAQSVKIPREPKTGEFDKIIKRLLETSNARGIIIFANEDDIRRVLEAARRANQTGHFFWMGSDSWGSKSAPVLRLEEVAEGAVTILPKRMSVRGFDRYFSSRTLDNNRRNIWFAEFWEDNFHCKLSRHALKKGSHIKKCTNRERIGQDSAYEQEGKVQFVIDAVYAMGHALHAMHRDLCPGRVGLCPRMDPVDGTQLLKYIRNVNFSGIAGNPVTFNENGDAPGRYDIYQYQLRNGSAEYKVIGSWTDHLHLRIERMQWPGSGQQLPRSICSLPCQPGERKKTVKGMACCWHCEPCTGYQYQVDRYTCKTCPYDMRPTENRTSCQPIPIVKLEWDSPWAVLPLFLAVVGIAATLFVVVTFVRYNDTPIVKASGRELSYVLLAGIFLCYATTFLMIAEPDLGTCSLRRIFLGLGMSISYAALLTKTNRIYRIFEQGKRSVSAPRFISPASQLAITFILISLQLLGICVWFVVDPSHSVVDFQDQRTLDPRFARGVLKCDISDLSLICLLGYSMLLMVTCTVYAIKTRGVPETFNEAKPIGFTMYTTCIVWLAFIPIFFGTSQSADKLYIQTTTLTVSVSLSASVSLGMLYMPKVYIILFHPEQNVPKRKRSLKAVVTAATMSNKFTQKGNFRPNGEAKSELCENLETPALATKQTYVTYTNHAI
Chain of Cytochrome P450 2C9 (P11712 whole entry): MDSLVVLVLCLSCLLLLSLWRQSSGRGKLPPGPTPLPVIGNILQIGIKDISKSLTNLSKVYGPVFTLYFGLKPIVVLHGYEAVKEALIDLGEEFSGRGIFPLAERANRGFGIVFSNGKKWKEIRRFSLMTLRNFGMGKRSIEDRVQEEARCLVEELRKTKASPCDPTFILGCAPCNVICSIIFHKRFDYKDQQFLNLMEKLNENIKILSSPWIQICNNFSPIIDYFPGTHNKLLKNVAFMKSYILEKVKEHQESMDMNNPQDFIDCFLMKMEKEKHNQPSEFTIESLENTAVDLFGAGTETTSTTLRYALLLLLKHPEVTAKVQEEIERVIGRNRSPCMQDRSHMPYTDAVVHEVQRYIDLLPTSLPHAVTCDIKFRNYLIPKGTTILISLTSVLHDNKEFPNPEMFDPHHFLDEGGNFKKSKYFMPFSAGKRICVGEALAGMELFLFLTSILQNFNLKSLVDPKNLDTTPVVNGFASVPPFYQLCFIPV

`CC(=O)N1CCc2cc(S(=O)(=O)CCC(=O)N3CCN(C(=O)c4ccco4)CC3)ccc21`: the concentration giving a half-maximal response (EC50) in [1] was > 50 µM (not active).
With `O=C(O)CSc1ncnc2scc(-c3ccc(Br)cc3)c12`, the EC50 in [2] and in assay [3] was > 55.7 µM (not active) in each case.
Turning to `CC(C)[C@@H](CC(=O)N[C@@H]1CCCC[C@H]1C(=O)N[C@H](CC(=O)N[C@@H](CCC(=O)O)CC(=O)O)Cc1ccccc1)NC(=O)C[C@H](CO)NC(=O)[C@@H]1CNCC[C@H]1N`, in assay [4], the AC50 was 31.6 µM (inconclusive).
As to `O=C(Nc1ccc(NC(=O)c2ccccc2Cl)c(F)c1)c1ccccn1`, the EC50 in [5] was 0.74 µM (active).
In the case of `CC(C)CCNC(=O)c1cc(-c2ccco2)nc2ccccc12`, the IC50 in assay [6] was > 56.8 µM (inactive).
Consider `O=C(CN1C(=O)c2ccccc2S1(=O)=O)N1CCc2ccccc21`, for which the IC50 is > 80 µM (inactive) in assay [7] and 35.3 µM (not active) in assay [9]. Besides, the half-maximal activity concentration (AC50) in [8] is 3.89 µM (active); in assay [10], 8.62 µM (active); in [11] it was 4.88 µM (active); in assay [13], 3.84 µM (active); in assay [14], 2.89 µM (active). Besides, the half-maximal effective concentration (EC50) in assay [12] was > 8 µM (not active); in [15] it was > 8 µM (not active); in assay [16] it was > 8 µM (inactive); in [17] it was > 8 µM (not active); in assay [18] it was 0.53 µM (active).
As for `C[C@@H]1NC(=O)N[C@@H]1CCCCCC(=O)O`, the EC50 in assay [19] is 11.9 µM (inactive); in [21], 7.8 µM (active); in assay [26], 7.41 µM (active). Further, the IC50 is 0.149 µM (active) in assay [20]; > 89.2 µM (inactive) in [22]; 1.57 µM (active) in [23]; 0.0101 µM (active) in assay [24]; 1.38 µM (active) in [25].
